In the supplement of paper PMC10307832:

Experiments:
Test in all cases: relative viability (nuclei count vs DMSO), 5 days (fraction); higher = more cells survive
ABC-1 = system: ABC-1
Procedure, shortened: (§1)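 Values are medians from duplicate plates. Each reflects relative viability, defined as the nuclei count of treated wells over that of vehicle wells. Lung cancer cell lines in 1536-well plates were pin-tool dosed one day after seeding with one drug alone or with a fixed anchor-drug dose plus five library-drug doses (not always all listed) in √10 steps, then fixed, stained and imaged at 4× after 5 days.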

BEN = system: BEN
Procedure, shortened: as §1

EPLC-272H = system: EPLC-272H
Procedure, shortened: as §1

HCC-827 = system: HCC-827
Procedure, shortened: as §1

HOP-62 = system: HOP-62
Procedure, shortened: as §1

LU99A = system: LU99A
Procedure, shortened: as §1

NCI-H1355 = system: NCI-H1355
Procedure, shortened: as §1

NCI-H1666 = system: NCI-H1666
Procedure, shortened: as §1

NCI-H1975 = system: NCI-H1975
Procedure, shortened: as §1

NCI-H2170 = system: NCI-H2170
Procedure, shortened: as §1

NCI-H23 = system: NCI-H23
Procedure, shortened: as §1

NCI-H2405 = system: NCI-H2405
Procedure, shortened: as §1

NCI-H3122 = system: NCI-H3122
Procedure, shortened: as §1

NCI-H322M = system: NCI-H322M
Procedure, shortened: as §1

NCI-H358 = system: NCI-H358
Procedure, shortened: as §1

NCI-H520 = system: NCI-H520
Procedure, shortened: as §1

NCI-H596 = system: NCI-H596
Procedure, shortened: as §1

NCI-H647 = system: NCI-H647
Procedure, shortened: as §1

NCI-H727 = system: NCI-H727
Procedure, shortened: as §1

NCI-H838 = system: NCI-H838
Procedure, shortened: as §1

PC-14 = system: PC-14
Procedure, shortened: as §1

SW 900 = system: SW 900
Procedure, shortened: as §1

UMC-11 = system: UMC-11
Procedure, shortened: as §1

With `CCCCCCCCCCCC1=C(O)C(=O)C=C(O)C1=O` [Embelin] + O=C(CCCCCCC(=O)Nc1ccccc1)NO [Vorinostat] (partner 1 µM) the relative viability (ABC-1; first compound 0.08 µM) was 1.04, the relative viability (ABC-1; first compound 0.8 µM) was 1.48 and the relative viability (ABC-1; first compound 2.53 µM) was 0.955. It also gave a relative viability (ABC-1; first compound 8 µM) of 0.86, a relative viability (BEN; first compound 0.08 µM) of 0.57 and a relative viability (BEN; first compound 0.8 µM) of 0.613. It also gave a relative viability (BEN; first compound 2.53 µM) of 0.647, a relative viability (BEN; first compound 8 µM) of 0.515 and a relative viability (EPLC-272H; first compound 0.08 µM) of 0.372. For the same compound, the relative viability (EPLC-272H; first compound 0.8 µM) was 0.62, the relative viability (EPLC-272H; first compound 2.53 µM) was 0.471 and the relative viability (EPLC-272H; first compound 8 µM) was 0.363. It also gave a relative viability (HCC-827; first compound 0.08 µM) of 0.806, a relative viability (HCC-827; first compound 0.8 µM) of 0.915 and a relative viability (HCC-827; first compound 2.53 µM) of 0.966. It also gave a relative viability (HCC-827; first compound 8 µM) of 0.917, a relative viability (HOP-62; first compound 0.08 µM) of 0.634 and a relative viability (HOP-62; first compound 0.8 µM) of 0.812. It also gave a relative viability (HOP-62; first compound 2.53 µM) of 0.504, a relative viability (HOP-62; first compound 8 µM) of 0.527 and a relative viability (LU99A; first compound 0.08 µM) of 0.56. The relative viability (LU99A; first compound 0.8 µM) was 0.461, the relative viability (LU99A; first compound 2.53 µM) was 0.586 and the relative viability (LU99A; first compound 8 µM) was 0.336. For the same compound, the relative viability (NCI-H1355; first compound 0.08 µM) was 0.649, the relative viability (NCI-H1355; first compound 0.8 µM) was 0.699 and the relative viability (NCI-H1355; first compound 2.53 µM) was 0.636. The relative viability (NCI-H1355; first compound 8 µM) was 0.523, the relative viability (NCI-H1666; first compound 0.08 µM) was 1.07 and the relative viability (NCI-H1666; first compound 0.8 µM) was 1.03. For the same compound, the relative viability (NCI-H1666; first compound 2.53 µM) was 1.09, the relative viability (NCI-H1666; first compound 8 µM) was 1.05 and the relative viability (NCI-H1975; first compound 0.08 µM) was 0.717. The relative viability (NCI-H1975; first compound 0.8 µM) was 0.741, the relative viability (NCI-H1975; first compound 2.53 µM) was 0.75 and the relative viability (NCI-H1975; first compound 8 µM) was 0.729. For the same compound, the relative viability (NCI-H2170; first compound 0.08 µM) was 0.773, the relative viability (NCI-H2170; first compound 0.8 µM) was 0.784 and the relative viability (NCI-H2170; first compound 2.53 µM) was 0.922. For the same compound, the relative viability (NCI-H2170; first compound 8 µM) was 0.754, the relative viability (NCI-H23; first compound 0.08 µM) was 0.58 and the relative viability (NCI-H23; first compound 0.8 µM) was 0.604. The relative viability (NCI-H23; first compound 2.53 µM) was 0.584, the relative viability (NCI-H23; first compound 8 µM) was 0.433 and the relative viability (NCI-H2405; first compound 0.08 µM) was 1.01. For the same compound, the relative viability (NCI-H2405; first compound 0.8 µM) was 1.13, the relative viability (NCI-H2405; first compound 2.53 µM) was 0.95 and the relative viability (NCI-H2405; first compound 8 µM) was 0.899. The relative viability (NCI-H3122; first compound 0.08 µM) was 0.816, the relative viability (NCI-H3122; first compound 0.8 µM) was 0.999 and the relative viability (NCI-H3122; first compound 2.53 µM) was 1.01. It also gave a relative viability (NCI-H3122; first compound 8 µM) of 0.915, a relative viability (NCI-H322M; first compound 0.08 µM) of 0.873 and a relative viability (NCI-H322M; first compound 0.8 µM) of 0.954. For the same compound, the relative viability (NCI-H322M; first compound 2.53 µM) was 1.01, the relative viability (NCI-H322M; first compound 8 µM) was 0.801 and the relative viability (NCI-H358; first compound 0.08 µM) was 0.699. The relative viability (NCI-H358; first compound 0.8 µM) was 0.876, the relative viability (NCI-H358; first compound 2.53 µM) was 0.707 and the relative viability (NCI-H358; first compound 8 µM) was 0.697. The relative viability (NCI-H520; first compound 0.08 µM) was 0.741, the relative viability (NCI-H520; first compound 0.8 µM) was 0.816 and the relative viability (NCI-H520; first compound 2.53 µM) was 0.75. It also gave a relative viability (NCI-H520; first compound 8 µM) of 0.573, a relative viability (NCI-H596; first compound 0.08 µM) of 0.56 and a relative viability (NCI-H596; first compound 0.8 µM) of 0.73. For the same compound, the relative viability (NCI-H596; first compound 2.53 µM) was 0.667, the relative viability (NCI-H596; first compound 8 µM) was 0.495 and the relative viability (NCI-H647; first compound 0.08 µM) was 0.58. It also gave a relative viability (NCI-H647; first compound 0.8 µM) of 0.985, a relative viability (NCI-H647; first compound 2.53 µM) of 0.732 and a relative viability (NCI-H647; first compound 8 µM) of 0.58. For the same compound, the relative viability (NCI-H727; first compound 0.08 µM) was 1.31, the relative viability (NCI-H727; first compound 0.8 µM) was 1.11 and the relative viability (NCI-H727; first compound 2.53 µM) was 1.32. For the same compound, the relative viability (NCI-H727; first compound 8 µM) was 1.22, the relative viability (NCI-H838; first compound 0.08 µM) was 0.746 and the relative viability (NCI-H838; first compound 0.8 µM) was 0.835. For the same compound, the relative viability (NCI-H838; first compound 2.53 µM) was 0.782, the relative viability (NCI-H838; first compound 8 µM) was 0.704 and the relative viability (PC-14; first compound 0.08 µM) was 0.746. For the same compound, the relative viability (PC-14; first compound 0.8 µM) was 0.886, the relative viability (PC-14; first compound 2.53 µM) was 0.586 and the relative viability (PC-14; first compound 8 µM) was 0.948. For the same compound, the relative viability (SW 900; first compound 0.08 µM) was 0.604, the relative viability (SW 900; first compound 0.8 µM) was 0.718 and the relative viability (SW 900; first compound 2.53 µM) was 0.538. The relative viability (SW 900; first compound 8 µM) was 0.315, the relative viability (UMC-11; first compound 0.08 µM) was 0.39 and the relative viability (UMC-11; first compound 0.8 µM) was 0.407. The relative viability (UMC-11; first compound 2.53 µM) was 0.372 and the relative viability (UMC-11; first compound 8 µM) was 0.393.
